From patent publication US5324725A, “7-fused 2-(piperazinoalkyl) indole derivatives, intermediates and compositions thereof” (Kali-Chemie Pharma GmbH, priority 1991, dated 1994)

Tests used:
[1] = tested on: P.A.F.-induced aggregation of platelets from rabbit blood; test: Anti-P.A.F. effect in vitro: inhibition of P.A.F.-induced platelet aggregation; format: cell-based, rabbit (New Zealand hybrids); conditions: Oryctolagus cuniculus, Platelet, test substance concentration 10^-5 mol/l
Description: 4. Determination of anti-P.A.F. effect in vitro.
Platelet-activating factor (P.A.F.) is a phospholipid mediator which has several effects. The activation of platelet aggregation leads to the induction of protracted broncho contractions and hyperreactivity of the airways.
The effects of the test substances on platelet aggregation induced by adding P.A.F. to a platelet suspension obtained from rabbit blood was investigated by the method described by Mikashima et al. (Jap. J. Pharmacol. 44 (1987) 387-391).
A suspension of platelets originating from rabbit blood was used which contained 4×10^9 platelets/ml in a modified Tyrode buffer solution adjusted to pH 7.4. Tyrode solution is an aqueous solution containing 136.9 mmol of NaCl, 2.68 mmol of KCl, 2.31 mmol of CaCl2, 1.0 mmol of MgCl2, 11.9 mmol of NaHCO3, 1.45 mmol of NaH2 PO4 and 5.55 mmol of glucose per liter. This solution was modified by adding 1.3 mM/l of CaCl2 and 2.5 g/l of gelatin. The platelets were obtained from 10 ml blood samples from each of three rabbits (New Zealand hybrids, body weight 3-4 kg). For this, the blood samples were treated with ethylenediaminetetraacetic acid and washed by the method of Artley et al. (Brit. J. Hamatol. 19 (1970), 7-17). A platelet-rich plasma was then initially separated by centrifugation (20 minutes at 400×g). The platelets were separated from the plasma by centrifuging again for 15 minutes at 1400×g. After centrifuging, the platelets remaining as a sediment were resuspended in a calcium-free Tyrode buffer solution. 0.4 mmol of lysine acetylsalicylate were then added and after 15 minutes the blood platelets were sedimented again. The sediment was resuspended in the abovementioned modified Tyrode buffer solution, and the number of platelets in the resulting suspension was adjusted to the desired content.
A 40×10^-9 molar P.A.F. solution was used as the reagent. This solution was prepared from a 1.8×10^-3 molar stock solution in chloroform. For this, a 10μl sample of the stock solution was evaporated to dryness and redissolved in 180 μl of the modified Tyrode solution, to which 0.25% of dilapidated bovine serum albumin had been added. 10^-5 molar working solutions were then prepared from this and stored frozen. Samples of these solutions were appropriately diluted for the tests.
To carry out the tests, 50 μl of the platelet solution and 10 μl of a 40×10^-5 molar solution of the compound to be investigated were added to 330 μl of the modified Tyrode buffer solution with stirring (1000 rpm) in an aggregation tube provided with a small magnetic stirrer. This corresponds to a final test substance concentration of 10^-5 mol/l. After a preincubation time of 90seconds, 10 μl of the P.A.F. preparation were added. The aggregation occurring in the aggregation tubes was measured for 4-5 minutes using a computerized aggregometer.
The aggregation occurring in the test tubes containing only platelet suspension was rated as 0%. The aggregation occurring in test tubes containing platelet suspension and P.A.F. preparation was rated as 100%. The aggregation which still occurred in the presence of the test substances (i.e. during inhibition of the P.A.F.-induced platelet aggregation increase) was measured, and the resulting aggregation inhibition is calculated from this in %.

[2] = tested on: Histamine-induced anaphylactoid reactions; test: Inhibition of anaphylactoid cutaneous reaction induced by histamine; format: in vivo, rat (Sprague-Dawley); conditions: Rattus norvegicus, 1 h; rats, 2 × 10^-5 mol/kg p.o., one hour before challenge; histamine intradermal
Experimental: (§1) 1. Determination of the inhibition of passive cutaneous anaphylaxis (P.C.A.) and of the anaphylactoid cutaneous reaction induced by histamine.
(§2) The determination of the inhibition of passive cutaneous anaphylaxis and the anaphylactoid cutaneous reaction induced by histamine was carried out as follows:
To determine the histamine-induced anaphylactoid skin reaction, the animals were injected intradermally in the flank opposite to the antiserum administration with 50 μl of a physiological saline solution containing 0.8 mg/ml of histamine directly before the i.v. injection of the solution containing the ovalbumin and the blue dye.
(§3) On the test days, the test substances were dissolved in distilled water which contained 1% by volume of dimethylformamide and 1% by volume of Tween®20 (polyoxyethylene(20) sorbitan monolaurate). One hour before the challenging ovalbumin administration, each animal received 2×10^-5 mol/kg of test substance administered orally in 0.5 ml of solution. A control group received only the solvent for comparison.
(§4) The oedematous anaphylactic (P.C.A.) and anaphylactoid (histamine-induced) reactions caused by the challenging i.v. ovalbumin injection, which are manifested by oedema formation, swelling and exudation of blue dye, were evaluated 30 minutes after challenge by the i.v. ovalbumin injection. This was done by visual determination of the extent to which the blue dye emerges at the sites of oedema formation. The percentage inhibition of anaphylactic and anaphylactoid reactions caused by the test substances was determined in comparison with the reactions of the control animals not treated with test substance with the aid of comparison scales.
(§5) The results obtained by the above test methods using compounds of the formula I are shown in the following Table A. The example numbers given for the compounds of formula I relate to the following preparation examples.

[3] = Determination of the minimum toxic dose; set-up: species or system male mice; conditions: mouse, in vivo, po, 300 mg/kg, 1440 min
Experimental: 2. Determination of the minimum toxic dose.
Maximum doses of 300 mg/kg of the test substance were administered orally to male mice weighing 20-25 g. The animals were observed carefully for 3 hours for toxicity symptoms. In addition, all symptoms and deaths over a period of 24 hours after administration were recorded. Associated symptoms were also observed and recorded. If death or severe toxic symptoms were observed, further mice were administered increasingly lower doses. The lowest dose which caused death or severe toxic symptoms is given as the minimum toxic dose in the following Table B.

[4] = tested on: Passive cutaneous anaphylaxis (P.C.A.); test: Inhibition of passive cutaneous anaphylaxis (P.C.A.); format: in vivo, rat (Sprague-Dawley); conditions: Rattus norvegicus, 1 h; rats, 2 × 10^-5 mol/kg p.o., one hour before ovalbumin challenge
Experimental: as §1
The P.C.A. reaction was carried out according to the methods described by Goose et al. (J.N. Immunology 16 (1969), 749) and by Martin et al (Arch. Pharmacol. 316 (1981), 186}.
The IgE-rich ovalbumin antiserum used in the test was obtained from immunized Brown-Norway rats. For immunization, the rats were given an i.p. injection of a mixture of 100 μg of ovalbumin with a Bordetella pertussis suspension (Vaxicoq®, Manufacturer: Institut Merieux, containing 5×10^9 organisms and 1.25 mg of Al(OH)3). After 20 days, the animals received a further i.p. injection of a solution of 10 μg of ovaIbumin in 0.5 ml of physiological saline solution for reimmunisation. After a further four days, the animals were bled, and the blood was centrifuged The antiserum obtained in this way was stored at -20° C. until use.
as §2
Sprague-Dawley rats having a body weight of 150-180 g were injected intradermally in one flank with 50 μl of a 1:75 dilution of the IgE-rich ovalbumin antiserum in physiological sodium chloride solution for passive sensitization to ovalbumin.
24 hours after sensitization a solution of 8.25 mg/kg of ovalbumin and 26.4 mg/kg of a blue dye (Evans' Blue) was administered i.v. to the rats according to Martin et al. to induce passive cutaneous anaphylaxis. The ovalbumin challenge caused a local anaphylactic reaction at the site at which the antiserum had been injected.
as §3, §4, §5

cyclooxygenase = target: T1, cyclooxygenase (Mus musculus, UniProt P22437); test: Cyclooxygenase inhibition: release of 6-keto-PGF1 α from zymosan-stimulated mouse peritoneal macrophage cells; format: cell-based; conditions: 10^-5 mol/l, read-out: In vitro % inhibition effect on the release of 6-keto-PGF1 α
T1 construct: A cell suspension containing peritoneal cells of male mice 8-10 weeks old was obtained; endogenous in cells; host or cells: mouse peritoneal macrophages (male mice 8-10 weeks old), zymosan-stimulated
T1 sequence (P22437 27-602): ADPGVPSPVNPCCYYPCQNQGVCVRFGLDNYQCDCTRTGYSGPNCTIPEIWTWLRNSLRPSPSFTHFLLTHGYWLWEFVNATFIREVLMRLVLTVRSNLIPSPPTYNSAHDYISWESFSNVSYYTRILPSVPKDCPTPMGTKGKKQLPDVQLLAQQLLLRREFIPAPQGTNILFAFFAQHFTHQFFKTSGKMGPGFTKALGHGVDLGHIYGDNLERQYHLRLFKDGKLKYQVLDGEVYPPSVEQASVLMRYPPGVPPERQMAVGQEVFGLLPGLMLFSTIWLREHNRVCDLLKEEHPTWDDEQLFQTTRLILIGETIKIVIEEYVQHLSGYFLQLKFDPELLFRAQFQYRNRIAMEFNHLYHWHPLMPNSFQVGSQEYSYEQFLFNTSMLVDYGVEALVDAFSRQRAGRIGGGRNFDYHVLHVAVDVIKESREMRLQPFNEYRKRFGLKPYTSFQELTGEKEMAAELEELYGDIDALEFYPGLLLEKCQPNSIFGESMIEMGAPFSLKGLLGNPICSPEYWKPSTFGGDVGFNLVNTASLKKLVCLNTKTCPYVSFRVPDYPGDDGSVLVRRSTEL
Description: (§6) 5. In vitro determination of cyclooxygenase inhibition and 5-lipoxygenase inhibition.
(§7) After activation of the cell, arachidonic acid contained in cell membranes is metabolized in two ways. Leukotrienes, inter alia leukotriene C4, are formed under the action of the enzyme 5-lipoxygenase (5-LO), and prostanoids are formed under the action of the enzyme cyclooxygenase (CO). In in vitro systems, the metabolites are secreted from the cell.
(§8) To investigate the cyclooxygenase-inhibiting and the 5-lipoxygenase-inhibiting properties, the inhibitory effect of the test substances on the biosynthesis of the arachidonic acid derivatives leukotriene C4 (LTC4) and 6-ketoprostaglandin F1 α (6-keto-PGF1 α) is determined in vitro on mouse peritoneal macrophage cells. This was accomplished by determining the LTC4 and 6-keto-PGF1 α contents in a culture medium of mouse peritoneal macrophage cells by zymosan stimulation as described by Scott et al. (J. Exp. Med. 152 (1980), 324-335) and by Fradin et al. (Prostaglandins, 33 (1987), 579-589).
(§9) A cell suspension containing peritoneal cells of male mice 8-10 weeks old was obtained in a known manner. A commercially available cell culture solution (RPMI 1640 from Messrs. Gibco) was used to which heparin (I0 international units/ml) and antibiotics were added according to the recipe of Bonney et al. (Biochem. J. 176 (1978) 422-433). The cell suspension was adjusted to a cell concentration of 10^6 cells per ml and distributed uniformly on titer plates containing […] (wells). These were kept for two hours in a humidified incubator filled with air enriched with 7% CO2. Cells not adhering to the titer cell walls were then removed by washing. The remaining macrophage cells adhering to the walls were incubated for about 12 hours in a suspension medium to which 0.1% bovine serum albumin (BSA) were added. The suspension medium was then replaced by a Hanks balanced salt solution (HBSS) containing 10 mM Hepes (hydroxyethyl-piperazinoethanesulfonic acid), to which a 0.1% strength solution of the test substances in aqueous, 1% strength dimethylformamide or only the solvent had been added. After 15 minutes the arachidonic acid metabolism was stimulated by adding 10 particles of zymosan (=glycoproteinmixture, isolated from cell walls of beer yeast, Saccharomyces cerevisiae, manufactured by Sigma Chemical Co., Munich) per titer cell. After 2 hours, samples of each of the supernatant liquids were investigated for their 6-keto-PGF1 α and LTC4 contents by means of an enzyme immunoassay (EIA) carried out by the method of Pradelles et al. (Analytical Chem. 57 (1985), 1170-1173). The determination of LTC4 and the determination of 6-keto-PGF1 α were each carried out in comparison with a comparative scale on suitable dilutions of the samples (1:50 to 1:250 for the LTC4 determination and 1:250 to 1:1250 for the 6-keto-PGF1 α determination). To determine the inhibitory effect of a 10^-5 molar concentration of the compounds, the amount of reference eicosanoids was determined and the inhibitory effect was calculated from this in % inhibition compared to the measurements of the zymosan controls.

5-lipoxygenase = target: T2, 5-lipoxygenase (Mus musculus, UniProt P48999); test: 5-lipoxygenase inhibition: release of LTC4 from zymosan-stimulated mouse peritoneal macrophage cells; format: cell-based; conditions: 10^-5 mol/l, read-out: In vitro % inhibition effect on the release of LTC4
T2 construct: A cell suspension containing peritoneal cells of male mice 8-10 weeks old was obtained; endogenous in cells; host or cells: mouse peritoneal macrophages (male mice 8-10 weeks old), zymosan-stimulated
T2 sequence (P48999 1-674): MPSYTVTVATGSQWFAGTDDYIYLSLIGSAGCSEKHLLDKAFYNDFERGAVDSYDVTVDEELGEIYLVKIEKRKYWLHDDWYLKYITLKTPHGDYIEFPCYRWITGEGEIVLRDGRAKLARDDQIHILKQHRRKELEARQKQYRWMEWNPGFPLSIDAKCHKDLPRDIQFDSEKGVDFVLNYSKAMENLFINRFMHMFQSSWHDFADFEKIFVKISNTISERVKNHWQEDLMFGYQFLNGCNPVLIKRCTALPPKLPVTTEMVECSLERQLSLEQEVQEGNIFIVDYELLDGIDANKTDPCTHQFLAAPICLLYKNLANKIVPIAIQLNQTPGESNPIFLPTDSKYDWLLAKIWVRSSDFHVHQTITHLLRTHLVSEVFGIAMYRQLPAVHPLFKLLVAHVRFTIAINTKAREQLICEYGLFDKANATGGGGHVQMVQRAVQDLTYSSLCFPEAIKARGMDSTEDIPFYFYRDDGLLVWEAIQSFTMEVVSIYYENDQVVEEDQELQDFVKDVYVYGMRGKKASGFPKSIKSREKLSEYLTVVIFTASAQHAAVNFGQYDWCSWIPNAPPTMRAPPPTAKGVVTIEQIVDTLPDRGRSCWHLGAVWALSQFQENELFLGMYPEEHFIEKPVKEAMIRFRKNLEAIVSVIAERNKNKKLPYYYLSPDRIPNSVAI
Description: as §6, §7, §8, §9

For `Cc1c(CCN2CCC(C(=O)c3ccccc3)CC2)c2cccc3c2n1CCC3C` (stereo not drawn) [Example 56], the inhibition at 10 µM [1] was 42%, the inhibition in vivo at 20 µmol/kg [2] was 50% and the “Minimum toxic dose (lowest dose which caused death or severe toxic symptoms)” value [3] was 300 mg/kg. For the same compound, the inhibition in vivo at 20 µmol/kg [4] was 80%.
Compound `Cc1ccnc(N2CCN(CCc3c(C)n4c5c(cc(C(=O)c6ccc(Cl)cc6)cc35)CCC4)CC2)c1` [Example 82] has an inhibition at 10 µM (cyclooxygenase) of 58% and an inhibition at 10 µM (5-lipoxygenase) of 9%.
For `Cc1ccnc(N2CCN(CCc3c(C)n4c5c(cc(CC6CCCCC6)cc35)CCC4)CC2)c1` [Example 84], the inhibition at 10 µM (cyclooxygenase) was 46% and the inhibition at 10 µM (5-lipoxygenase) was 20%.
In the case of `Cc1ccnc(N2CCN(CCc3c(-c4ccccc4)n4c5c(cccc35)CCC4)CC2)c1` [Example 40], the inhibition at 10 µM [1] is reported as 100%, the inhibition in vivo at 20 µmol/kg [2] is reported as 43% and the “Minimum toxic dose (lowest dose which caused death or severe toxic symptoms)” value [3] is reported as 300 mg/kg. It also gave an inhibition in vivo at 20 µmol/kg [4] of 70%.
